{"source": "paper PMC11124870", "about": "“Effect of Antioxidants in Medicinal Products on Intestinal Drug Transporters” (Pharmaceutics, 2024)", "key": {"[1]": {"molecular_target": "T1, BCRP (Homo sapiens, UniProt Q9UNQ0)", "T1 sequence (Q9UNQ0 1-655)": "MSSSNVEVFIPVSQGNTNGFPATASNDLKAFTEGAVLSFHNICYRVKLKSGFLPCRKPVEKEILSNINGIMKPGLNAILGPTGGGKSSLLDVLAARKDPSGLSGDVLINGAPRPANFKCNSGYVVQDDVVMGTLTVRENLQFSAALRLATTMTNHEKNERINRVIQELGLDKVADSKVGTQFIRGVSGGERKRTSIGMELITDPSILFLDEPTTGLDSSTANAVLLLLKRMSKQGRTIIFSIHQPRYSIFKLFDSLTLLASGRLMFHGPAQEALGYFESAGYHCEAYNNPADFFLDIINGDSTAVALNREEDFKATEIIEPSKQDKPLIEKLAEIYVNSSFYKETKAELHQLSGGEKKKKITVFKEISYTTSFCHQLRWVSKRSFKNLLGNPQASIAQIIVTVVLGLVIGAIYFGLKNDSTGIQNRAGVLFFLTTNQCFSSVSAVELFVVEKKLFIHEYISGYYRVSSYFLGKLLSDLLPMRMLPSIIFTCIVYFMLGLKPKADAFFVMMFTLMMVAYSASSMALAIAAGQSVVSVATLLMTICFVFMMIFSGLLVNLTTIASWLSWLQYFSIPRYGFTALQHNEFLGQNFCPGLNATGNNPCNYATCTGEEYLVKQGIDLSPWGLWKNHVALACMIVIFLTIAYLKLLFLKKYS", "experiment": "Vesicular transport assay, 3H-CCK8 uptake in BCRP membrane vesicles", "assay_type": "biochemical", "design": "purchased ThermoFisher Scientific GM0008; host or cells: Sf9 membrane vesicles", "experimental": "The vesicular transport assay was performed using Spodoptera frugiperda 9 (Sf9) membrane vesicles overexpressing human P-gp or BCRP, as reported previously with minor modifications. In brief, Isoplate 96-well flat-bottom white plates were preincubated with HBSS containing 0.5 mg/mL BSA on an orbital shaker in a 37 °C incubator at 90 rpm for 60 min followed by washing with HBSS. The assay mixture (75 µL/well) contained a probe substrate and either vehicle control, a known inhibitor of P-gp or BCRP, or an antioxidant, in vesicle uptake buffer (50 mM MOPS-Tris, pH 7.0 + 70 mM KCl + 7.5 mM MgCl2) prewarmed to 37 °C. After addition of the assay mixture, 5 μL/well (5 μg/μL stock concentration of the vesicles) of vesicles overexpressing human P-gp or BCRP was added. Uptake assays were initiated by adding 20 μL of either 25 mM adenosine triphosphate (ATP) or 25 mM adenosine monophosphate (AMP) to a final concentration of 5 mM. Plates were incubated at 37 °C for 20 min with orbital shaking (90 rpm). After 20 min, the uptake was quenched by adding 150 μL of ice-cold wash buffer (40 mM MOPS-Tris, pH 7.0 + 70 mM KCl) to each well, and the mixture was transferred to a 96-well filtration plate. Vacuum was applied, and the vesicles were washed three times with wash buffer. Vesicles were then lysed with 100 µL of MicroScint-20."}, "[2]": {"details": "Table S1; source not stated; cited from earlier work"}, "[3]": {"molecular_target": "T2, OATP2B1 (Homo sapiens, UniProt O94956)", "T2 sequence (O94956 1-709)": "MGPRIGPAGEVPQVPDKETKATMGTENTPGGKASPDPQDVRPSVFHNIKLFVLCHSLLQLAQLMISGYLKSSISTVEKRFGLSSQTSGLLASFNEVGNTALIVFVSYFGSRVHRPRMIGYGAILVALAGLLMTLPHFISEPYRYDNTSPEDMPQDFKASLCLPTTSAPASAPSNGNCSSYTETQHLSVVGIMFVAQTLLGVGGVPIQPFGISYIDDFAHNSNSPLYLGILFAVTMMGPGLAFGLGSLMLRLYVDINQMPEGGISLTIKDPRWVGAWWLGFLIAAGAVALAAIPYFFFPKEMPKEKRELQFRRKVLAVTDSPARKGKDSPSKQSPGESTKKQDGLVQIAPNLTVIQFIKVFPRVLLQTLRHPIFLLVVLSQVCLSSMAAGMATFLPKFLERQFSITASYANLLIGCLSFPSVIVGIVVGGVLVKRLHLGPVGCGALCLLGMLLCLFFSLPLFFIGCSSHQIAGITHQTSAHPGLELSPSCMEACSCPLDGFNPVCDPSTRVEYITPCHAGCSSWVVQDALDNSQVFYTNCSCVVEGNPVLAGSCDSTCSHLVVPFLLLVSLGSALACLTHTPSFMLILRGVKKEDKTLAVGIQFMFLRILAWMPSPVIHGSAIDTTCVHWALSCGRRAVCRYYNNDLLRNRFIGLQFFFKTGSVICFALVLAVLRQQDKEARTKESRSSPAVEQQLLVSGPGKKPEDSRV", "experiment": "Uptake transporter assay, 3H-estrone sulfate uptake in HEK-293-OATP2B1 cells", "details": "for IC50: mean ± SD of three independent experiments", "procedure": "The uptake transporter assay was performed as reported previously with minor modifications [15]. A day before the uptake assay, Isoplate 96-well plates were coated with poly-D-lysine in PBS with calcium and magnesium and washed with PBS. […] An assay mixture of ^3H-estrone sulfate, a known inhibitor of OATP2B1, or an antioxidant was prepared and incubated in a 37 °C incubator for 10 min. The cells were washed with ice-cold HBSS three times and incubated with MicroScint fluid on a shaker for 1 h for cell lysis. Radioactivity was measured by liquid scintillation counting with a MicroBeta^2® microplate counter. […] On the day of experiment, cells were washed twice with 0.4 mL of HBSS per well and then pre-incubated for 10–20 min in 0.4 mL of HBSS. […] Uptake of ^3H-valsartan was stopped after 15 min by washing three times with ice-cold HBSS. Cells were lysed in 750 µL of lysis buffer (0.1 N NaOH and 0.1% SDS in double-distilled water) per well while shaking for 60 min. A total of 690 µL of the lysate from each well was then added to 2.5 mL of EcoLite scintillation fluid. The radioactivity was determined on a LS6500 Scintillation Counter (Beckman Coulter). Protein concentration was measured with a Pierce™ BCA protein assay kit. The radioactivity in each well was corrected for protein concentration. All values were determined in triplicate, and the final values are expressed as % uptake relative to negative control (1% DMSO).\nAntioxidants were screened at a concentration of 200 μM."}}, "note": "Read-outs that look alike come from different tables or passages of the source."}
{"smiles": "COc1ccc(O)cc1C(C)(C)C", "note": "[Butylated hydroxyanisole (BHA), 2-tert-Butyl-4-hydroxyanisole]", "values": [{"measurement": "Inhibition of BCRP", "setting": "[1]; 200 µM, 3H-CCK8", "result": "at least 50%"}, {"measurement": "% Uptake of 3H-CCK8 BCRP", "setting": "[1]; antioxidant 200 µM, uptake with DMSO set as 100%, mean ± SD, three replicates, membrane vesicles", "result": "46.7 ± 5.5", "unit": "%"}, {"measurement": "IC50", "setting": "[1]; substrate 3H-CCK8, mean ± SD of three independent experiments", "result": "206 ± 14", "unit": "µM"}, {"measurement": "LogP", "setting": "[2]", "result": 3.2}, {"measurement": "Inhibition of OATP2B1", "setting": "[3]; 200 µM, 3H-estrone sulfate", "result": "at least 50%"}, {"measurement": "Effect of 30 min pre-incubation on inhibition potency", "setting": "[3]; OATP2B1-expressing cells pre-incubated for 30 min", "result": "did not further affect their inhibition potency"}, {"measurement": "% Uptake of 3H-ES OATP2B1", "setting": "[3]; antioxidant 200 µM, uptake with DMSO set as 100%, mean ± SD, three replicates, HEK-293-OATP2B1 cells", "result": "19.8 ± 7.1", "unit": "%"}, {"measurement": "IC50", "setting": "[3]; read-out: IC50 OATP2B1, substrate 3H-estrone sulfate", "result": "71 ± 20", "unit": "µM"}, {"measurement": "IC50", "setting": "[3]; read-out: IC50 with preincubation, OATP2B1 expressing cells pre-incubated 30 minutes", "result": "67 ± 12.8", "unit": "µM"}, {"measurement": "IC50", "setting": "[3]; read-out: IC50 without preincubation, OATP2B1 expressing cells", "result": "76.9 ± 15.9", "unit": "µM"}]}
